How the values were obtained:
[1] = system: Caco-2 cells; assay: in vitro; settings: Caco-2
Protocol: (§1) The goal of this assay was to evaluate the intestinal absorption potential of drug candidates using Caco-2 cell lines.
(§2) Experimental Procedure • 1. Pre-warm Pre-warm HBSS Buffer in 37° C. water bath • 2. Sonicate Take compounds from −20° C., sonicate for a few minutes (no less than 1 minute) • 3. Solution preparation
(§3) For A-to-B Direction: • HBSS buffer with 0.3% DMSO and 5 μM LY: add 150 μL DMSO and 50 μL LY (5 mM) into 50 ml HBSS buffer (pH 7.4). • HBSS buffer with 0.1% DMSO and 5 μM LY: add 50 μL DMSO and 50 μL LY (5 mM) into 50 mL HBSS buffer (pH 7.4).
(§4) For B-to-A Direction: • HBSS buffer with 0.3% DMSO: add 150 μL DMSO into 50 ml HBSS buffer (pH 7.4). HBSS buffer with 0.1% DMSO: add 50 μL DMSO into 50 ml HBSS buffer (pH 7.4).
(§5) For A-to-B Direction: • Prepare HBSS buffer with 0.4% DMSO: add 200 μL DMSO into 50 ml HBSS buffer (pH 7.4).
(§6) For B-to-A Direction: • Prepare HBSS buffer with 0.4% DMSO and 5 μM LY: add 200 μL DMSO and 50 μL LY (5 mM) into 50 ml HBSS buffer (pH 7.4).
(§7) • 4. Measure TEER Take cell culture plate out of incubator, wash the cell monolayers with HBSS buffer, and then measure TEER values at Rm temperature. • 5. Centrifuge Centrifuge the compound solution (from step 3) at 4000 rpm for 5 min before loading to donor chambers. • 6. Dosing Add solution based on the volumes listed in the following table (make sure to take extra 100 μL of donor sample for T0 as Backup).
(§8) • 7. Apical LYTO samples To determine LY concentration in the apical chamber, take 100 μL sample from apical chambers into an opaque plate for LYTO. • 8. Pre-warm Pre-warm apical and basolateral plates at 37° C. for about 5 min, then begin transport by placing the apical plate onto basolateral plate. • 9. Incubation Keep the plates in incubator at 37° C. for 90 min. • 10.
(§9) • Prepare 1× solution: • 3 μL (20×)+57 μL of 0.4% DMSO HBSS+60 μL ACN with IS (Osalmid or Imipramine)—120 μL (1×) • 11. Transport termination Separate the apical plate from the basolateral plate after 90-min incubation. • 12. Measure LY Take 100 μL samples from basolateral plate to an opaque plate as LYT90. • 13. Measure LY concentrations for LYTO and LYT90 by Fluorometer (at excitation of 485 nm/emission of 535 nm). • 14.
(§10) Drug permeability: Papp=(VA/(Area×time))×([drug]accepter/(([drug]initial, donor)×Dilution Factor) • Where VA is the volume in the acceptor well, area is the surface area of the membrane and time is the total transport time in seconds.
(§11) For Millicell-24 Cell Culture Plates: surface area of the membrane=0.7 cm^2, VA=0.8 mL (A-to-B) or 0.4 mL (B-to-A)

[2] = target: T1, CXCR-4 transfected U87 cell line (U87.CXCR4) (Homo sapiens, UniProt P61073); assay: Intracellular CXCL-12-induced calcium mobilization assay (FLIPR); type: cell-based; settings: U87.CXCR4 cells; CXCL-12 25-50 ng/mL; compounds added 15 minutes before; read-out: IC50 CXCL-12 Ca2+ flux U87.CXCR4+
T1 construct: expressed in transfected cells; host or cells: U87 cell line (U87.CXCR4)
Protocol: Intracellular calcium mobilization induced by chemokines orchemokine-derived peptides were evaluated using a calcium responsive fluorescent probe and a FLIPR system. The CXCR-4 transfected U87 cell line (U87.CXCR4) cells were seeded in gelatine-coated black-wall 96-well plates at 20,000 cells per well and incubated for 12 hours. Cells were then loaded with the fluorescent calcium probe Fluo-2 acetoxymethyl at 4 μM final concentration in assay buffer (Hanks' balanced salt solution with 20 mM HEPES buffer and 0.2% bovine serum albumin, pH 7.4) for 45 min at 37′C. The intracellular calcium mobilization induced by the CXCL-12 (25-50 ng/mL) was then measured at 37° C. by monitoring the fluorescence as a function of time in all the wells simultaneously using a fluorometric imaging plate reader (FLIPR Tetra, Molecular Devices).

[3] = target: T2, Jurkat cells expressing CXCR4 (Homo sapiens, UniProt P61073); assay: Chemokine (CXCL12-AF647) binding inhibition assay; settings: CXCL12-AF647 25 ng/mL, read-out: IC50 CXCL-12 binding Jurkat
T2 construct: Jurkat cells expressing CXCR4; endogenous in cells; host or cells: Jurkat cells
Protocol: Jurkat cells expressing CXCR4 were washed once with assay buffer (Hanks' balanced salt solution with 20 mM HEPES buffer and 0.2% bovine serum albumin, pH 7.4) and then incubated for 15 min at room temperature with the test compounds diluted in assay buffer at dose-dependent concentrations. Subsequently, CXCL12-AF647 (25 ng/mL) was added to the compound-incubated cells. The cells were incubated for 30 min at room temperature. Thereafter, the cells were washed twice in assay buffer, fixed in 1% paraformaldehyde in PBS, and analyzed on the FL4 channel of a FACSCalibur flow cytometer equipped with a 635-nm red diode laser (Becton Dickinson, San Jose, Calif., USA).
The percentages of inhibition of CXCL12-AF647 binding were calculated according to the formula: [1−((MFI−MFINC)/(MFIPC−MFINC))]×100 where MFI is the mean fluorescence intensity of the cells incubated with CXCL12-AF647 in the presence of the inhibitor, MFINC is the mean fluorescence intensity measured in the negative control (i.e., autofluorescence of unlabeled cells), and MFIPC is the mean fluorescence intensity of the positive control (i.e., cells exposed to CXCL12-AF647 alone).

[4] = in vitro; settings: human, Caco-2, pH 7.4
Protocol: as §1, §2, §3, §4, §5, §6, §7, §8, §9, §10, §11

T2 sequence (P61073 whole entry): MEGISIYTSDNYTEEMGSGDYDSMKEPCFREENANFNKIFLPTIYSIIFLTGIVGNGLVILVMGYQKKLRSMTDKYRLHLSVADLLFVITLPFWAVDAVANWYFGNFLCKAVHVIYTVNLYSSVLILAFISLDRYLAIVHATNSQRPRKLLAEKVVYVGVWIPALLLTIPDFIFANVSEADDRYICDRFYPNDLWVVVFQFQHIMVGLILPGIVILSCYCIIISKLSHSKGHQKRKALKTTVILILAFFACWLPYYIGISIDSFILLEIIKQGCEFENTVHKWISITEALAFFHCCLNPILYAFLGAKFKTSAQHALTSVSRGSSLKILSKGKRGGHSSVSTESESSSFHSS
T1 sequence (P61073 whole entry): as above

Molecule	permeability for Lucifer Yellow [1]	IC50 [2]	IC50 [3]	Papp A→B at 90 min, 10 μM [4]	Papp B→A at 90 min, 10 μM [4]	efflux ratio at 90 min, 10 μM [4]
Lucifer Yellow [reference compound]	low permeability	–	–	–	–	–
CC(C)c1cccnc1CN(CCC(N)=O)[C@H]1CCCc2cccnc21 [Compound I-48]	–	≥ 1000 nM	0.01 to 100 nM	< 5 ×10⁻⁶ cm/s	> 10 ×10⁻⁶ cm/s	0.1 to 10
Cc1cccnc1CN(CCc1cnc[nH]1)Cc1ncccc1C [Compound I-9]	–	0.01 to 100 nM	0.01 to 100 nM	< 5 ×10⁻⁶ cm/s	> 10 ×10⁻⁶ cm/s	10 to 30
Cc1cccnc1CN(CCC(N)=O)Cc1ncccc1Cl [Compound I-15]	–	≥ 1000 nM	100 to 1000 nM	> 10 ×10⁻⁶ cm/s	> 10 ×10⁻⁶ cm/s	0.1 to 10
CC(C)c1cccnc1CN(CCc1cnc[nH]1)Cc1ncccc1Cl [Compound I-35]	–	100 to 1000 nM	0.01 to 100 nM	> 10 ×10⁻⁶ cm/s	> 10 ×10⁻⁶ cm/s	0.1 to 10
Cc1cccnc1CN(CCc1cnc[nH]1)Cc1nccc2ccccc12 [Compound I-36]	–	0.01 to 100 nM	0.01 to 100 nM	< 5 ×10⁻⁶ cm/s	> 10 ×10⁻⁶ cm/s	10 to 30
Cc1cccnc1CN(CCn1ccccc1=O)Cc1ncccc1C [Compound I-58]	–	≥ 1000 nM	100 to 1000 nM	> 10 ×10⁻⁶ cm/s	> 10 ×10⁻⁶ cm/s	0.1 to 10
Cc1cccnc1CN(CCc1c[nH]cn1)Cc1nc2ccc(F)cc2n1C [Compound I-41]	–	100 to 1000 nM	0.01 to 100 nM	< 5 ×10⁻⁶ cm/s	> 10 ×10⁻⁶ cm/s	> 30
c1cnc2c(c1)CCC[C@@H]2N(CCc1cscn1)Cc1nc2ccccc2[nH]1 [Compound I-20]	–	0.01 to 100 nM	0.01 to 100 nM	> 10 ×10⁻⁶ cm/s	> 10 ×10⁻⁶ cm/s	0.1 to 10
Cc1cccnc1CN(CCc1cnc[nH]1)C(C)c1ccccn1 (centres unmarked) [Compound I-8]	–	≥ 1000 nM	0.01 to 100 nM	< 5 ×10⁻⁶ cm/s	> 10 ×10⁻⁶ cm/s	10 to 30
Cc1cccnc1CN(CCc1ccccn1)Cc1ncccc1Cl [Compound I-5]	–	100 to 1000 nM	0.01 to 100 nM	> 10 ×10⁻⁶ cm/s	> 10 ×10⁻⁶ cm/s	0.1 to 10
Cc1cccnc1CN(CCc1cnc[nH]1)Cc1ncccc1C(C)C [Compound I-34]	–	100 to 1000 nM	0.01 to 100 nM	5 to 10 ×10⁻⁶ cm/s	> 10 ×10⁻⁶ cm/s	0.1 to 10
